This passage reports IC50 results from patent US20220411367A1, “ARYLMETHYLENE HETEROCYCLIC COMPOUNDS AS KV1.3 POTASSIUM SHAKER CHANNEL BLOCKERS” (D. E. Shaw Research, LLC, priority 2019, published 2022).

Molecules are shown by their SMILES.

For one experiment, the target named is T1, Kv1.3 potassium channel (Homo sapiens, UniProt P22001).
T1 construct: expressed in transfected cells
Briefly: Kv1.3 potassium channel blocker activity, automated whole-cell patch clamp (Patchliner). The experiment is classed as cell-based. The following applies: CHO-K1 cells stably expressing Kv1.3; whole cell current inhibition; read-out: Kvl.3 IC50. As for the experimental part: This assay is used to evaluate the disclosed compounds' activities as Kv1.3 potassium channel blockers.
CHO-K1 cells stably expressing Kv1.3 were grown in DMEM containing 10% heat-inactivated FBS, 1 mM Sodium Pyruvate, 2 mM L-Glutamine and G418 (500 μg/ml).
(§1) All compounds were dissolved in DMSO at 30 mM.
The currents were evoked by applying 100 ms depolarizing pulses from −90 mV (holding potential) to +40 mV were applied with 0.1 Hz frequency. […] 10 second breaks were used between pulse trains (see Table A below).
Data were sampled at 10 kHz without filtering. Passive leak currents were subtracted online using a P/4 procedure (HEKA Elektronik Dr. Schulze GmbH). […] Total compound incubation time before the next pulse train was not longer than 10 seconds. Peak current inhibition was observed during compound equilibration.
Background: The patch-clamp technique gives a direct electrical read-out from membranes.

The next experiment deals with T2, hERG channel (Homo sapiens, UniProt Q12809).
T2 construct: expressed in transfected cells
T2 sequence (Q12809 whole entry): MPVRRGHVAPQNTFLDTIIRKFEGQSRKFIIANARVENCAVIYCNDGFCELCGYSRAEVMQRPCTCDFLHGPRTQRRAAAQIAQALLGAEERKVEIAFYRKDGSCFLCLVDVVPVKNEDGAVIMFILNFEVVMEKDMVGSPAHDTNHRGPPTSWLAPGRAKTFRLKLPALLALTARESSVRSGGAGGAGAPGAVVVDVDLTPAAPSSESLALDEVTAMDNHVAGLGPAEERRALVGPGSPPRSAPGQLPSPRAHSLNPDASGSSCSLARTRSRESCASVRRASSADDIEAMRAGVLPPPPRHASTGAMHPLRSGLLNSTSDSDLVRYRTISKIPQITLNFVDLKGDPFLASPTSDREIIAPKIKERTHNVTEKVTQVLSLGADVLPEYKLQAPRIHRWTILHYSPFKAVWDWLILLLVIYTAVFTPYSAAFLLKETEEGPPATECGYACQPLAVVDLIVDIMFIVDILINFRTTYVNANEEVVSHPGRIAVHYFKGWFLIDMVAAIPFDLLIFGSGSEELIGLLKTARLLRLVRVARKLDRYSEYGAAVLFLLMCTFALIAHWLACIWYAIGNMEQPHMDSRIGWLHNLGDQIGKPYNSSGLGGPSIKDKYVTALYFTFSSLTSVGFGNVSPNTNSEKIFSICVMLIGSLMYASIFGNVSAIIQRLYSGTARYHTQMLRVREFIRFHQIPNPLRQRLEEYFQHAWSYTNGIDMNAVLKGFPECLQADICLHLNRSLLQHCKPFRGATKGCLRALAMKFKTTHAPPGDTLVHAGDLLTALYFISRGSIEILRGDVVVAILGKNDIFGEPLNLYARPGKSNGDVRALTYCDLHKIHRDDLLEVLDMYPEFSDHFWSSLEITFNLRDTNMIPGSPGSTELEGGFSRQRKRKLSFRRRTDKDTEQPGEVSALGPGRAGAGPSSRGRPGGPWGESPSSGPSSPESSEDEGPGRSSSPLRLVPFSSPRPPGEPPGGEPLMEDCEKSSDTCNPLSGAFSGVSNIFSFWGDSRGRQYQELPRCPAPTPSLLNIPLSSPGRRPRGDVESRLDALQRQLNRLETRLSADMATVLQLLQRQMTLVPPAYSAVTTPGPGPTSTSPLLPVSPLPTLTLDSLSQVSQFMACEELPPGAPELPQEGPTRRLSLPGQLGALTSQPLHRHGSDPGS
Briefly: hERG electrophysiology, automated whole-cell patch clamp (Patchliner). The experiment is classed as cell-based. The following applies: CHO-K1 cells stably expressing hERG; whole cell current inhibition; read-out: hERG IC50. As for the experimental part:
as §1
The pulse frequency was 0.3 Hz.
Data were sampled at 10 kHz without filtering.

T1 sequence (P22001 whole entry): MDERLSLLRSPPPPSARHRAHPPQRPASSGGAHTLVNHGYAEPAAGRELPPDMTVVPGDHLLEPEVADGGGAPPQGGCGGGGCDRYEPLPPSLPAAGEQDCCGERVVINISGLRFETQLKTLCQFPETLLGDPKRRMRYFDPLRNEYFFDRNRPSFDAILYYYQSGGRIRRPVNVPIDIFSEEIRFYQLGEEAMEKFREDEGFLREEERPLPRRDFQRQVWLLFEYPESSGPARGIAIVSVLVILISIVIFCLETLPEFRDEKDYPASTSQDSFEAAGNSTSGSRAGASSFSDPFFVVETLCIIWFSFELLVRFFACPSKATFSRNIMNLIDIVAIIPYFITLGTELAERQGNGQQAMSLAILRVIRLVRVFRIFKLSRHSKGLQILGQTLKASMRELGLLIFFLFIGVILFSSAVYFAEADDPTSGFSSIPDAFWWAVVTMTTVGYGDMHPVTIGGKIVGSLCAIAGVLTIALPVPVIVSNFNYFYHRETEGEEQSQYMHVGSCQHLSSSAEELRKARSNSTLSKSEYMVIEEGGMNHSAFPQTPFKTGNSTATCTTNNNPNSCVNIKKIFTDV

For orientation: IC50 means the concentration needed to halve the response being measured. As to `OC[C@@H]1CCN(Cc2cc(Cl)c(Cl)cc2O)[C@H](c2ccccc2)C1` (relative stereo) [Compound 10, 4,5-dichloro-2-(((2S,4R)-rel-4-(hydroxymethyl)-2-phenylpiperidin-1-yl)methyl)phenol], the half-inhibitory concentration (IC50) on Kv1.3 potassium channel is less than 10 µM.

`OC[C@@H]1CCN(Cc2cc(Cl)c(Cl)cc2O)[C@@H](c2ccccc2)C1` (relative stereo) [Compound 11, 4,5-dichloro-2-(((2R,4R)-rel-4-(hydroxymethyl)-2-phenylpiperidin-1-yl)methyl)phenol]: the IC50 at Kv1.3 potassium channel was less than 10 µM.

Regarding `C[C@@H]1C[C@@H](CO)CCN1Cc1cc(Cl)c(Cl)cc1O` (relative stereo) [Compound 24, 4,5-dichloro-2-(((2R,4S)-rel-4-(hydroxymethyl)-2-methylpiperidin-1-yl)methyl)phenol], at Kv1.3 potassium channel, the IC50 is less than 10 µM.

Regarding `C[C@H]1C[C@@H](CO)CCN1Cc1cc(Cl)c(Cl)cc1O` (relative stereo) [Compound 29, 4,5-dichloro-2-(((2S,4S)-rel-4-(hydroxymethyl)-2-methylpiperidin-1-yl)methyl)phenol], the figures for the half-maximal inhibitory concentration (IC50) at hERG channel and at Kv1.3 potassium channel were less than 30 µM and less than 1 µM, respectively.

Take `COC(=O)C1CC(CO)CCN1Cc1cc(Cl)c(Cl)cc1O` (stereo not shown) [Compound 1, methyl 1-[(4,5-dichloro-2-hydroxyphenyl)methyl]-4-(hydroxymethyl)piperidine-2-carboxylate]: the IC50 at Kv1.3 potassium channel was less than 10 µM.

In the case of `OCC1CCN(Cc2cc(Cl)c(Cl)cc2O)C(CO)C1` (stereo not shown) [Compound 2, (1-(4,5-dichloro-2-hydroxybenzyl)piperidine-2,4-diyl)dimethanol], at Kv1.3 potassium channel, the IC50 was less than 10 µM.

On to `NCC1(N)CCN(Cc2cc(Cl)c(Cl)cc2O)CC1` [Compound 3, 2-((4-amino-4-(aminomethyl)piperidin-1-yl)methyl)-4,5-dichlorophenol], for which the 50% inhibitory concentration (IC50) was less than 30 µM on hERG channel and less than 1 µM on Kv1.3 potassium channel.

With `NCC(c1cc(Cl)c(Cl)cc1O)N1CCC(CO)CC1` (stereo not shown) [Compound 4, 2-[2-amino-1-[4-(hydroxymethyl)piperidin-1-yl]ethyl]-4,5-dichlorophenol], at Kv1.3 potassium channel, the 50% inhibitory concentration (IC50) was less than 10 µM.

As to `NCC1(CO)CCN(Cc2cc(Cl)c(Cl)cc2O)CC1` [Compound 5, 2-[[4-(aminomethyl)-4-(hydroxymethyl)piperidin-1-yl]methyl]-4,5-dichlorophenol], the half-inhibitory concentration (IC50) at hERG channel was less than 30 µM; at Kv1.3 potassium channel, less than 1 µM.

With `O=C(N1CCCC1)C1(CO)CCN(Cc2cc(Cl)c(Cl)cc2O)CC1` [Compound 6, 4,5-dichloro-2-[[4-(hydroxymethyl)-4-[(pyrrolidin-1-yl)carbonyl]piperidin-1-yl]methyl]phenol], the IC50 at Kv1.3 potassium channel was less than 10 µM.

`C=CC(=O)NCC1(CO)CCN(Cc2cc(Cl)c(Cl)cc2O)CC1` [Compound 7, N-([1-[(4,5-dichloro-2-hydroxyphenyl)methyl]-4-(hydroxymethyl)piperidin-4-yl]methyl)prop-2-enamide]: the IC50 on Kv1.3 potassium channel was less than 1 µM.

On to `CC(=O)NCC1(O)CCN(Cc2cc(Cl)c(Cl)cc2O)CC1` [Compound 8, N-([1-[(4,5-dichloro-2-hydroxyphenyl)methyl]-4-hydroxypiperidin-4-yl]methyl)acetamide], for which the half-inhibitory concentration (IC50) at Kv1.3 potassium channel was less than 10 µM.

Regarding `NCC1(O)CCN(Cc2cc(Cl)c(Cl)cc2O)CC1` [Compound 9, 4-(aminomethyl)-1-[(4,5-dichloro-2-hydroxyphenyl)methyl]piperidin-4-ol trifluoroacetic acid], the IC50 on hERG channel is less than 30 µM; at Kv1.3 potassium channel, less than 1 µM.

With `CC(=O)NC1(CO)CCN(Cc2cc(Cl)c(Cl)cc2O)CC1` [Compound 12, N-[1-[(4,5-dichloro-2-hydroxyphenyl)methyl]-4-(hydroxymethyl)piperidin-4-yl]acetamide], the figures for the concentration for half-maximal inhibition (IC50) at hERG channel and on Kv1.3 potassium channel were more than 30 µM and less than 1 µM, respectively.

Take `O=C(NCC1(CO)CCN(Cc2cc(Cl)c(Cl)cc2O)CC1)C(F)(F)F` [Compound 13, N-([1-[(4,5-dichloro-2-hydroxyphenyl)methyl]-4-(hydroxymethyl)piperidin-4-yl]methyl)-2,2,2-trifluoroacetamide]: the half-maximal inhibitory concentration (IC50) at Kv1.3 potassium channel was less than 1 µM.

Take `NC1(CO)CCN(Cc2cc(Cl)c(Cl)cc2O)CC1` [Compound 14, 2-[[4-amino-4-(hydroxymethyl)piperidin-1-yl]methyl]-4,5-dichlorophenol]: the IC50 at hERG channel was less than 30 µM; at Kv1.3 potassium channel, less than 1 µM.

`OCC1CCN(C(CO)c2cc(Cl)c(Cl)cc2O)CC1` (stereo not shown) [Compound 15, 4,5-dichloro-2-[2-hydroxy-1-[4-(hydroxymethyl)piperidin-1-yl]ethyl]phenol]: the 50% inhibitory concentration (IC50) on Kv1.3 potassium channel is less than 10 µM.

Turning to `Cc1cc(O)c(CN2CCC(CO)CC2)cc1C` [Compound 16, 2-[[4-(hydroxymethyl)piperidin-1-yl]methyl]-4,5-dimethylphenol], at Kv1.3 potassium channel, the half-inhibitory concentration (IC50) is less than 10 µM.

For `Cc1cc(CN2CCC(CO)CC2)c(O)cc1Cl` [Compound 17, 5-chloro-2-[[4-(hydroxymethyl)piperidin-1-yl]methyl]-4-methylphenol], the IC50 at Kv1.3 potassium channel was less than 10 µM.

With `CCC(c1cc(Cl)c(Cl)cc1O)N1CCC(CO)CC1` (stereo not shown) [Compound 18, 4,5-dichloro-2-[1-[4-(hydroxymethyl)piperidin-1-yl]propyl]phenol], the half-inhibitory concentration (IC50) is less than 30 µM on hERG channel and less than 10 µM on Kv1.3 potassium channel.

Regarding `Cc1cc(O)c(CN2CCC(CO)CC2)cc1Cl` [Compound 19, 4-chloro-2-[[4-(hydroxymethyl)piperidin-1-yl]methyl]-5-methylphenol], the figures for the 50% inhibitory concentration (IC50) at hERG channel and on Kv1.3 potassium channel were more than 30 µM and less than 1 µM, respectively.

On to `Oc1cc(Cl)c(Cl)cc1CN1CCC(C2CCOCC2)CC1` [Compound 20, 4,5-dichloro-2-[[4-(oxan-4-yl)piperidin-1-yl]methyl]phenol], for which the IC50 is less than 30 µM on hERG channel and less than 1 µM on Kv1.3 potassium channel.

Regarding `CC(=O)NCC1(CO)CCN(Cc2cc(Cl)c(Cl)cc2O)CC1` [Compound 21, N-([1-[(4,5-dichloro-2-hydroxyphenyl)methyl]-4-(hydroxymethyl)piperidin-4-yl]methyl)acetamide], the IC50 was less than 30 µM on hERG channel and less than 1 µM on Kv1.3 potassium channel.

Consider `OCC1(c2ccccc2)CCN(Cc2cc(Cl)c(Cl)cc2O)CC1` [Compound 22, 4,5-dichloro-2-[[4-(hydroxymethyl)-4-phenylpiperidin-1-yl]methyl]phenol], for which the half-inhibitory concentration (IC50) was less than 30 µM on hERG channel and less than 1 µM at Kv1.3 potassium channel.

On to `CC(C)CC(c1cc(Cl)c(Cl)cc1O)N1CCC(CO)CC1` (stereo not shown) [Compound 23, 4,5-dichloro-2-[1-[4-(hydroxymethyl)piperidin-1-yl]-3-methylbutyl]phenol], for which, at Kv1.3 potassium channel, the 50% inhibitory concentration (IC50) was less than 10 µM.

In the case of `O=C(O)CC1CCN(Cc2cc(Cl)c(Cl)cc2O)CC1` [Compound 28, 2-(1-(4,5-dichloro-2-hydroxybenzyl)piperidin-4-yl)acetic acid], the IC50 at Kv1.3 potassium channel was less than 10 µM.

In the case of `OCC1(F)CCN(Cc2cc(Cl)c(Cl)cc2O)CC1` [Compound 31, 4,5-dichloro-2-[[4-fluoro-4-(hydroxymethyl)piperidin-l-yl]methyl]phenol], on Kv1.3 potassium channel, the half-maximal inhibitory concentration (IC50) is less than 10 µM.

`O=C1CCOC12CCN(Cc1cc(Cl)c(Cl)cc1O)CC2` [Compound 33, 8-[(4,5-dichloro-2-hydroxyphenyl)methyl]-1-oxa-8-azaspiro[4.5]decan-4-one]: the IC50 on Kv1.3 potassium channel was less than 10 µM.

Regarding `OCC1CCCCN1Cc1cc(Cl)c(Cl)cc1O` (stereo not shown) [Compound 34, 4,5-dichloro-2-[[2-(hydroxymethyl)piperidin-1-yl]methyl]phenol], on Kv1.3 potassium channel, the IC50 was less than 10 µM.

In the case of `Oc1cc(Cl)c(Cl)cc1CN1CCC2(CC1)OCCO2` [Compound 35, 4,5-dichloro-2-[1,4-dioxa-8-azaspiro[4.5]decan-8-ylmethyl]phenol trifluoroacetic acid], the IC50 at Kv1.3 potassium channel was less than 10 µM.

As to `OC[C@@H]1[C@H]2CN(Cc3cc(Cl)c(Cl)cc3O)C[C@@H]12` [Compound 36, 4,5-dichloro-2-(((1R,5S,6R)-6-(hydroxymethyl)-3-azabicyclo[3.1.0]hexan-3-yl)methyl)phenol], at Kv1.3 potassium channel, the 50% inhibitory concentration (IC50) was less than 10 µM.

As for `Oc1cc(Cl)c(Cl)cc1CN1CCC(O)(O)CC1` [Compound 37, 1-(4,5-dichloro-2-hydroxybenzyl)piperidine-4,4-diol trifluoroacetic acid], on Kv1.3 potassium channel, the concentration for half-maximal inhibition (IC50) is less than 10 µM.

As to `Oc1cc(Cl)c(Cl)cc1CN1CCC(n2cnnc2)CC1` [Compound 38, 4,5-dichloro-2-[[4-(4H-1,2,4-triazol-4-yl)piperidin-1-yl]methyl]phenol], the IC50 on Kv1.3 potassium channel is less than 10 µM.

As for `CS(=O)(=O)C1CCN(Cc2cc(Cl)c(Cl)cc2O)CC1` [Compound 41, 4,5-dichloro-2-((4-(methylsulfonyl)piperidin-1-yl)methyl)phenol], on Kv1.3 potassium channel, the IC50 was less than 10 µM.

As for `Oc1cc(Cl)c(Cl)cc1CN1CCn2cnnc2C1` [Compound 43, 4,5-dichloro-2-[5H,6H,7H,8H-[1,2,4]triazolo[4,3-a]pyrazin-7-ylmethyl]phenol], the IC50 on Kv1.3 potassium channel is less than 10 µM.

`CC(c1cc(Cl)c(Cl)cc1O)N1CCC(CO)CC1` (stereo not shown) [Compound 46, 4,5-dichloro-2-[1-[4-(hydroxymethyl)piperidin-1-yl]ethyl]phenol]: the IC50 on Kv1.3 potassium channel is less than 10 µM.

As to `OCC1CN(Cc2cc(Cl)c(Cl)cc2O)CCN1` (stereo not shown) [Compound 47, 4,5-dichloro-2-((3-(hydroxymethyl)piperazin-1-yl)methyl)phenol], the concentration for half-maximal inhibition (IC50) at Kv1.3 potassium channel was less than 10 µM.

For `O=C1CCC2(CCN1)CCN(Cc1cc(Cl)c(Cl)cc1O)CC2` [Compound 59, 3-(4,5-dichloro-2-hydroxybenzyl)-3,9-diazaspiro[5.6]dodecan-10-one], the concentration for half-maximal inhibition (IC50) at Kv1.3 potassium channel is less than 10 µM.
